Calls of active or inactive are those of the source. How the calls were made is not given here.
Each compound was assayed against Serine/threonine-protein kinase mTOR (Homo sapiens) (UniProt P42345) (assay: mTOR FRB domain ligand binding – biophysical, NMR (AID 1648)). Details: NMR binding to FRB domain, chemical shift.
Chain of Serine/threonine-protein kinase mTOR (Homo sapiens) (P42345 2015-2114): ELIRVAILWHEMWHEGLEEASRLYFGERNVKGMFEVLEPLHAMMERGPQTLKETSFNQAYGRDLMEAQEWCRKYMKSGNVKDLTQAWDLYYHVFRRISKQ
NC(=O)c1c[nH]c2ccccc12 was tested, and the Kd was > 4 mM (inactive). For CC(=O)c1c(C)nn(CC(=O)O)c1C, the Kd was > 4 mM (inactive). In the case of CCc1ccc2oc(-c3cc(N)cc(C)c3O)nc2c1, the Kd was > 4 mM (inactive). In the case of NC(=O)c1ccsc1NC(=O)c1cccnc1, the Kd was > 4 mM (inactive). With O=c1ccc2cc(O)c(O)cc2o1 the Kd was > 4 mM (inactive). In the case of COCC(=O)NC1CC(C)(C)NC(C)(C)C1, the Kd was > 4 mM (inactive). With CC(C)CCCC(C)C1CCC2C3=CC[C@H]4C[C@@H](O)CC[C@]4(C)C3CC[C@@]21C (some centres undefined) the Kd was > 4 mM (inactive). With COc1ccc(/C=N/n2cn[nH]c2=S)cc1 the Kd was > 4 mM (inactive). For O=S(=O)(c1cccc2cccnc12)N1CCOCC1, the Kd was > 4 mM (inactive). O=C1CSC(=O)N1CN1CCCC1 was tested, and the Kd was > 4 mM (inactive). With NCCc1cnc[nH]1 the Kd was > 4 mM (inactive). Cc1cc2cc3c(C)cc(=O)oc3c(C)c2o1 was tested, and the Kd was > 4 mM (inactive). In the case of CC(=O)Oc1ccc(N2C(=O)C3C4C=CC(O4)C3C2=O)cc1 (centres undefined), the Kd was > 4 mM (inactive). OCc1ccncc1 was tested, and the Kd was > 4 mM (inactive). With C=CCn1c(=S)[nH]c2ccc(Br)cc2c1=O the Kd was > 4 mM (inactive). With CC(=O)Nc1ccc(C(=O)N2CCOCC2)cc1Cl the Kd was > 4 mM (inactive). In the case of CCNC(CC(=O)Nc1ccc(F)cc1)C(=O)O (centres undefined), the Kd was > 4 mM (inactive). For COc1cc(C)nc(N(CCO)CCO)n1, the Kd was > 4 mM (inactive). With C/C=C/C=N/NC(=O)c1ccc(=O)n(C)c1 the Kd was > 4 mM (inactive). O=[n+]1c2c(n([O-])c3ccccc31)CCCC2 was tested, and the Kd was > 4 mM (inactive). CCOC(=O)c1cnc2cc(C)nn2c1C was tested, and the Kd was > 4 mM (inactive). With CS(=O)(=O)N1CCN(c2ccccc2F)CC1 the Kd was > 4 mM (inactive). For CC(C)c1c(O)ccc2c1CCC1[C@@](C)(C=O)CCC[C@]21C (some centres undefined), the Kd was > 4 mM (inactive). In the case of O=C(O)c1ccc(N2CCCCC2)cc1, the Kd was > 4 mM (inactive). NC(=O)C1(c2ccccc2)CCOCC1 was tested, and the Kd was > 4 mM (inactive). O=C(c1ccccc1)N1CCN(c2ccccc2F)CC1 was tested, and the Kd was > 4 mM (inactive). In the case of O=c1c2c(nc3nc(Cc4ccccc4)[nH]n13)CCC2, the Kd was > 4 mM (inactive). Cc1ccccc1-n1c(N)cc(=O)[nH]c1=S was tested, and the Kd was > 4 mM (inactive). For CC(=O)NN1C(=O)/C(=C\c2ccc(O)cc2)SC1=S, the Kd was > 4 mM (inactive). With C[N+](C)(C)CC(O)CC(=O)O (centres undefined) the Kd was > 4 mM (inactive). For CC(=O)N(c1ccccc1)C1C=CS(=O)(=O)C1 (centres undefined), the Kd was > 4 mM (inactive). With CC(CC(=O)O)n1cccn1 (centres undefined) the Kd was > 4 mM (inactive). In the case of O=c1[nH]nc(Cc2ccccn2)c2ccccc12, the Kd was > 4 mM (inactive). In the case of CC(C)(C#N)O[C@@H]1O[C@H](CO)[C@@H](O)[C@H](O)[C@H]1O, the Kd was > 4 mM (inactive). With COc1ccc(NS(=O)(=O)c2ccc(N)cc2)nn1 the Kd was > 4 mM (inactive). Cc1ccccc1NC(=O)N1CCOCC1 was tested, and the Kd was > 4 mM (inactive). O=C(Cn1cnc2ccccc2c1=O)N1CCOCC1 was tested, and the Kd was > 4 mM (inactive). For CC(C)=CC(=O)Nc1ccc2c(c1)OCO2, the Kd was > 4 mM (inactive). In the case of O=C(Nc1ccccc1C(F)(F)F)c1cnccn1, the Kd was > 4 mM (inactive). COc1cc([C@@H]2c3cc4c(cc3C(OC3O[C@@H]5COC(C)O[C@H]5[C@H](O)[C@H]3O)C3COC(=O)[C@@H]32)OCO4)cc(OC)c1O (some centres undefined) was tested, and the Kd was > 4 mM (inactive). COc1cc2c(cc1OC)C1=C(C#N)CCC(=O)N1CC2 was tested, and the Kd was > 4 mM (inactive). In the case of O=C(O)C1CC(=O)N(Cc2cccs2)C1 (centres undefined), the Kd was > 4 mM (inactive). In the case of CN1CCC(NC(=O)Cc2c(F)cccc2Cl)CC1, the Kd was > 4 mM (inactive). In the case of O=c1[nH]cc(S(=O)(=O)N2CCc3ccccc32)c(=O)[nH]1, the Kd was > 4 mM (inactive). CCOC(=O)c1c(C)cc(O)cc1O was tested, and the Kd was > 4 mM (inactive). With Cc1ccc(-c2nc(N)n(C(=O)c3cccnc3)n2)cc1 the Kd was > 4 mM (inactive). In the case of CCC(=O)n1nc(-c2ccco2)nc1N, the Kd was > 4 mM (inactive). In the case of O=S1(=O)CCC(NC(=S)Nc2ccccn2)C1 (centres undefined), the Kd was > 4 mM (inactive). In the case of Cc1nn(C)c2sc(CO)cc12, the Kd was > 4 mM (inactive). In the case of CCOC(=O)CNc1ncnc2c1nnn2CC, the Kd was > 4 mM (inactive). O=C(Nc1ccon1)c1csc2ccccc12 was tested, and the Kd was > 4 mM (inactive). For CO[C@H]1[C@@H](O)[C@@H](C)O[C@H](O[C@H]2CCC3(C)C4CCC5(C)[C@@H](C6=CC(=O)OC6)CC[C@]5(O)[C@@H]4CC[C@]3(O)C2)[C@@H]1O (some centres undefined), the Kd was > 4 mM (inactive). In the case of COC(=O)CSc1ncnc2c(C)csc12, the Kd was > 4 mM (inactive). O=C1C2C3C=CC(C3)C2C(=O)N1c1ccccn1 (centres undefined) was tested, and the Kd was > 4 mM (inactive). In the case of NC(=O)CCn1cnc2ccccc21, the Kd was > 4 mM (inactive). In the case of Cc1nccc2c1[nH]c1ccccc12, the Kd was > 4 mM (inactive). With CC1CC[C@@]2(OC1)O[C@H]1CC3C4CC[C@@H]5C[C@@H](O)CC[C@]5(C)C4CC[C@]3(C)[C@H]1[C@@H]2C (some centres undefined) the Kd was > 4 mM (inactive). In the case of COc1ccc(/C=C2\NC(=S)N(C)C2=O)cc1O, the Kd was > 4 mM (inactive). With Cc1ccc2c(c1)CCCN2C(=O)c1ccncc1 the Kd was > 4 mM (inactive). With O=C(/C=C/C=C/c1ccc2c(c1)OCO2)N1CCCCC1 the Kd was > 4 mM (inactive). CCn1nnc2c(NCc3ccccn3)ncnc21 was tested, and the Kd was > 4 mM (inactive). For CC1CN(Cc2ccccn2)CCC1=O (centres undefined), the Kd was > 4 mM (inactive). For c1cncc(Cn2cccc2)c1, the Kd was > 4 mM (inactive). Cc1csc(NC(=O)c2cccs2)n1 was tested, and the Kd was > 4 mM (inactive). Oc1ccc(C2SCCS2)cc1 was tested, and the Kd was > 4 mM (inactive). CN1CCC(N2CCCC(C(N)=O)C2)CC1 (centres undefined) was tested, and the Kd was > 4 mM (inactive). With Cc1nn(CC(=O)N2CCCCC2)c(=O)c2ccccc12 the Kd was > 4 mM (inactive). With COc1ccc(N2CC(=O)NC2=O)cc1 the Kd was > 4 mM (inactive). With Cc1ccc(/C=C/C(=O)O)cc1S(=O)(=O)NCCO the Kd was > 4 mM (inactive). For CC(CCC(=O)O)[C@H]1CCC2C3CC[C@@H]4C[C@H](O)CC[C@]4(C)C3C[C@H](O)[C@@]21C (some centres undefined), the Kd was > 4 mM (inactive). For O=C(O)c1coc2c1C(=O)CCC2, the Kd was > 4 mM (inactive). With CC(=O)Nc1ccn(-c2ccccc2)n1 the Kd was > 4 mM (inactive). For OC12CC3CC(C1)C1(NCCS1)C(C3)C2 (centres undefined), the Kd was > 4 mM (inactive). In the case of NC(=O)CSc1nnc(-c2ccncc2)o1, the Kd was > 4 mM (inactive). With Cn1c(-c2ccccc2F)n[nH]c1=S the Kd was > 4 mM (inactive). For c1ccc2c(NC3=NCCS3)cccc2c1, the Kd was > 4 mM (inactive). Nc1nc(-c2ccncc2)cs1 was tested, and the Kd was > 4 mM (inactive). For COc1cc(/C=C/C(=O)O)cc(OC)c1OC, the Kd was > 4 mM (inactive). Cc1c(C(=O)Nc2cnccn2)oc2ccccc12 was tested, and the Kd was > 4 mM (inactive). In the case of COC(=O)Nc1ccc2ncn(C)c(=O)c2c1, the Kd was > 4 mM (inactive). For OCc1cccc2c1OCO2, the Kd was > 4 mM (inactive). In the case of OCc1ccc(N2CCOCC2)nc1, the Kd was > 4 mM (inactive). NCc1ccccc1N1CCOCC1 was tested, and the Kd was > 4 mM (inactive). Cc1cc(=O)n2[nH]c(C)cc2n1 was tested, and the Kd was > 4 mM (inactive). For CC1(O)CC2C(CC1O)C2(C)C (centres undefined), the Kd was > 4 mM (inactive). In the case of Cc1cc(C(=O)NCc2cccnc2)no1, the Kd was > 4 mM (inactive). S=C(NCC1CCCO1)NC1CC1 (centres undefined) was tested, and the Kd was > 4 mM (inactive). For CC(=O)O[C@H]1C[C@@H](OC(C)=O)C(C)(C)C2C[C@@H](OC(C)=O)[C@]3(C)C(CC[C@@]4(C)[C@H](c5ccoc5)OC(=O)[C@H]5O[C@]543)[C@]21C (some centres undefined), the Kd was > 4 mM (inactive). For CCOc1ccc2ccccc2c1C(=O)N1CCOCC1, the Kd was > 4 mM (inactive). With CNc1nc(OC)nc(N2CCOCC2)n1 the Kd was > 4 mM (inactive). CN1CCC(NC(=O)c2cccnc2)CC1 was tested, and the Kd was > 4 mM (inactive). With COc1cc2c(cc1OC)C(=O)OC2 the Kd was > 4 mM (inactive). In the case of CC(=O)Nc1cc(C(N)=O)cc(C(N)=O)c1, the Kd was > 4 mM (inactive). C[C@@H]1CCC2[C@](C)(CO)[C@@H](O)CC[C@]2(C)[C@@]12CC[C@@](CO)(CCO)O2 (some centres undefined) was tested, and the Kd was > 4 mM (inactive). Cn1cnc([N+](=O)[O-])c1Sc1ncnc2nc[nH]c12 was tested, and the Kd was > 4 mM (inactive). For COc1ccc(-c2cc(=O)c3c(OC)c(OC)c(OC)c(OC)c3o2)cc1, the Kd was > 4 mM (inactive). O=C(Nn1cnnc1)c1ccccc1-c1ccccc1 was tested, and the Kd was > 4 mM (inactive). NCc1nnnn1-c1ccccc1 was tested, and the Kd was > 4 mM (inactive). In the case of NC12CC3CC(C1)CC(C(=O)O)(C3)C2, the Kd was > 4 mM (inactive). O=C(Nc1ccncc1)c1c(F)cccc1F was tested, and the Kd was > 4 mM (inactive). With COc1ccc(Cc2nnc3c4cnn(C)c4ncn23)cc1 the Kd was > 4 mM (inactive). In the case of Cc1ccc2[nH]c3nc(=S)[nH]nc3c2c1, the Kd was > 4 mM (inactive). With Cc1ccc(/C=N/NC(N)=O)o1 the Kd was > 4 mM (inactive). In the case of C=CCn1c(N)c(C(=O)N2CCOCC2)sc1=S, the Kd was > 4 mM (inactive). For O=C(COc1ccccc1O)NCCO, the Kd was > 4 mM (inactive). For CCCCN1C(=O)C2CC/C(=N/O)CC2C1=O (centres undefined), the Kd was > 4 mM (inactive). For COC(=O)C[C@@H]1C2(C)C(=O)[C@@H](CC3C2CC[C@]2(C)C3CC(=O)O[C@H]2c2ccoc2)[C@H](OC(C)=O)C1(C)C (some centres undefined), the Kd was > 4 mM (inactive). With COc1ccc(-c2ccc(=O)n(CC(N)=O)n2)cc1 the Kd was > 4 mM (inactive). In the case of NC(=O)/C=C/C(=O)Nc1ccccc1, the Kd was > 4 mM (inactive). For CCOC(=O)c1cnc2n(c1=O)CCS2, the Kd was > 4 mM (inactive). For CS(=O)(=O)N1CCN(C(=O)Cc2cccs2)CC1, the Kd was > 4 mM (inactive). In the case of Cc1nn(C)c2sc(C(=O)O)cc12, the Kd was > 4 mM (inactive). CC(=O)Nc1ccc(NC(=O)/C=C\C(=O)O)cc1 was tested, and the Kd was > 4 mM (inactive). For c1ccc(Cc2nnc3sc(-c4ccccn4)nn23)cc1, the Kd was > 4 mM (inactive). For O=c1[nH]c2sc3c(c2c2ncnn12)CCCC3, the Kd was > 4 mM (inactive). In the case of CC(CC(O)C1OC1(C)C)[C@@H]1CCC2(C)C3=CCC4C(C)(C)C(=O)CCC4(C)C3CC[C@@]12C (some centres undefined), the Kd was > 4 mM (inactive). With O=C(O)C1CCCCN1Cc1ccccc1 (centres undefined) the Kd was > 4 mM (inactive). For Oc1ccccc1N=Cc1cccnc1, the Kd was > 4 mM (inactive). For CN1CCn2c1nc(N1CCOCC1)nc2=O, the Kd was > 4 mM (inactive).
